Data set [1] is described as follows: Growth inhibition of mouse NIH/3T3 cells at 50 uM after 24 to 72 hrs by trypan blue staining based assay relative to control. It is filed as cell-based, NIH3T3. As to conditions: read-out: GI.
A further data set concerns HL-60. Kind of data set: Growth inhibition of human HL60 cells at 50 uM after 24 to 72 hrs by trypan blue staining based assay relative to control. It counts as functional. The conditions noted are these: read-out: GI.
A further data set concerns HeLa. The data set is described as follows: Growth inhibition of human HeLa cells at 50 uM after 24 to 72 hrs by trypan blue staining based assay relative to control. The conditions noted are these: read-out: GI. It counts as functional.
The test system of a further data set is B16. The data set is described as follows: Growth inhibition of mouse B16 cells at 50 uM after 24 to 72 hrs by trypan blue staining based assay relative to control. The conditions noted are these: read-out: GI. It is filed as functional.
In data set [2] the test system is Escherichia coli. Kind of data set: Antimicrobial activity against Escherichia coli O157:H7 incubated for 24 hrs by microbroth dilution method. As to conditions: O157:H7, 24 h. It is filed as functional.
Data set [3] concerns Escherichia coli. Kind of data set: Antimicrobial activity against Escherichia coli NCTC 11954 incubated for 24 hrs by microbroth dilution method. It is filed as functional. As to conditions: NCTC 11954, 24 h.
Another data set deals with Stachybotrys chartarum. The data set is described as follows: Antimicrobial activity against Stachybotrys chartarum IBT 7711 after 48 hrs by microbroth dilution method. It is filed as functional. As to conditions: IBT 7711, 48 h.
For the next data set, the system named is Pseudomonas aeruginosa. The data set is described as follows: Antimicrobial activity against Pseudomonas aeruginosa ATCC 9627 incubated for 24 hrs by microbroth dilution method. It is filed as functional. The conditions noted are these: ATCC 9627, 24 h.
A further data set has as its system Aspergillus flavus. Kind of data set: Antimicrobial activity against Aspergillus flavus ATCC 9643 after 48 hrs by microbroth dilution method. It is filed as functional. As to conditions: ATCC 9643, 48 h.
Data set [4] has as its system Escherichia coli. Kind of data set: Antimicrobial activity against nalidixic acid-resistant Escherichia coli clinical isolate incubated for 24 hrs by microbroth dilution method. It is filed as functional.
Data set [5] deals with Escherichia coli. Kind of data set: Antimicrobial activity against Escherichia coli ATCC 8739 incubated for 24 hrs by microbroth dilution method. It counts as functional. The conditions noted are these: ATCC 8739, 24 h.
For a further data set, the system named is Salmonella enterica. The data set is described as follows: Antimicrobial activity against Salmonella enterica ATCC 13312 incubated for 24 hrs by microbroth dilution method. As to conditions: ATCC 13312, 24 h. It counts as functional.
Another data set relates to Listeria monocytogenes. The data set is described as follows: Antimicrobial activity against Listeria monocytogenes ATCC 19115 incubated for 24 hrs by microbroth dilution method. As to conditions: ATCC 19115, 24 h. It is filed as functional.
The test system of data set [6] is Staphylococcus aureus. The data set is described as follows: Antimicrobial activity against Staphylococcus aureus ATCC 9253 incubated for 24 hrs by microbroth dilution method. As to conditions: ATCC 9253, 24 h. It counts as functional.
The next data set has as its system Candida albicans. Kind of data set: Antimicrobial activity against Candida albicans ATCC 10231 after 24 hrs by microbroth dilution method. It counts as functional. The conditions noted are these: ATCC 10231, 24 h.
Data set [7] concerns Staphylococcus aureus. Kind of data set: Antimicrobial activity against Staphylococcus aureus ATCC 33591 incubated for 24 hrs by microbroth dilution method. It counts as functional. As to conditions: ATCC 33591, 24 h.
Data set [8] has as its system Staphylococcus aureus. Kind of data set: Antimicrobial activity against methicillin-resistant Staphylococcus aureus incubated overnight by broth microdilution method. It is filed as functional.
Another data set has as its system Klebsiella pneumoniae. The data set is described as follows: Antimicrobial activity against Klebsiella pneumoniae incubated overnight by broth microdilution method. It counts as functional.
In a further data set the test system is Penicillium chrysogenum. The data set is described as follows: Antimicrobial activity against Penicillium chrysogenum ATCC 10106 after 48 hrs by microbroth dilution method. It counts as functional. The conditions noted are these: ATCC 10106, 48 h.

≈ marks a conversion by molar mass, not a printed value. Where only a bound is given, the exact number is not on record here.

Take `O=C(CSc1nnc(CN2CCN(c3cc4c(cc3F)c(=O)c(C(=O)O)cn4C3CC3)CC2)o1)c1ccc(Cl)cc1`: the inhibition at 50 µM in data set [1] was found to be 100%. For the same compound, the inhibition of growth at 50 µM in the data set with HL-60, in the data set with HeLa and with B16 was 100% in each case.

In the case of `COc1c(N2CCN(C)CC2)c(F)cc2c(=O)c(C(=O)N[C@H]3[C@H](O)[C@@H](O)[C@H](CO)[C@H](O)[C@@H]3O)cn(C3CC3)c12`, the MIC against Escherichia coli [2] was found to be 39.7 µM (≈ 21.9 µg/mL); in the data set on Escherichia coli [3] it was 159 µM (≈ 87.5 µg/mL); against Stachybotrys chartarum, 636 µM (≈ 350 µg/mL); against Pseudomonas aeruginosa, 19.9 µM (≈ 11 µg/mL); with Aspergillus flavus, 636 µM (≈ 350 µg/mL); in the data set with Escherichia coli [4], 636 µM (≈ 350 µg/mL). Besides, the MIC with Escherichia coli [5] is 318 µM (≈ 175 µg/mL); in the data set on Salmonella enterica, 159 µM (≈ 87.5 µg/mL); against Listeria monocytogenes it was 636 µM (≈ 350 µg/mL); in the data set with Staphylococcus aureus [6] it was 159 µM (≈ 87.5 µg/mL); with Candida albicans, < 9.9 µM; in the data set on Staphylococcus aureus [7], 159 µM (≈ 87.5 µg/mL).

For `C[C@H]1Cn2cc(C(=O)NCCC(=O)NCCCCC[C@@H](N)C(=O)N[C@@H](CCCNC(=N)N)C(=O)N[C@@H](CCCNC(=N)N)C(=O)N[C@@H](CCCNC(=N)N)C(=O)N[C@@H](CCCNC(=N)N)C(=O)N[C@@H](Cc3c[nH]c4ccccc34)C(=O)N[C@@H](CCCNC(=N)N)C(=O)N[C@@H](Cc3c[nH]c4ccccc34)C(=O)N[C@@H](Cc3c[nH]c4ccccc34)C(=O)O)c(=O)c3cc(F)c(N4CCN(C)CC4)c(c32)O1`, the MIC with Staphylococcus aureus [8] is 64 µg/mL (≈ 33.4 µM); in the data set on Klebsiella pneumoniae, > 128 µg/mL.

In the case of `COC[C@@H]1[C@H](OC(C)=O)[C@H](OC(C)=O)[C@@H](NC(=O)c2cn(C3CC3)c3c(OC)c(N4CCN(C)CC4)c(F)cc3c2=O)[C@H](OC(C)=O)[C@H]1OC(C)=O`, the MIC is 55.7 µM (≈ 40.8 µg/mL) against Escherichia coli [2]; 111 µM (≈ 81.6 µg/mL) with Escherichia coli [3]; 445 µM (≈ 326 µg/mL) with Stachybotrys chartarum; 111 µM (≈ 81.6 µg/mL) against Pseudomonas aeruginosa; 55.7 µM (≈ 40.8 µg/mL) against Aspergillus flavus; 445 µM (≈ 326 µg/mL) in the data set with Escherichia coli [4]. The MIC was determined as 445 µM (≈ 326 µg/mL) with Escherichia coli [5]; 890 µM (≈ 652 µg/mL) against Salmonella enterica; 445 µM (≈ 326 µg/mL) in the data set with Penicillium chrysogenum; 111 µM (≈ 81.6 µg/mL) in the data set with Listeria monocytogenes; 55.7 µM (≈ 40.8 µg/mL) against Staphylococcus aureus [6]; 223 µM (≈ 163 µg/mL) with Candida albicans. This compound yielded a minimum inhibitory concentration (MIC) in the data set with Staphylococcus aureus [7] of 111 µM (≈ 81.6 µg/mL).

Take `C[C@H]1Cn2cc(C(=O)NCCC(=O)NCCC[C@@H]3NC(=O)[C@H](CCCNC(=N)N)NC(=O)[C@H](CCCNC(=N)N)NC(=O)[C@H](CCCNC(=N)N)NC(=O)[C@@H](Cc4c[nH]c5ccccc45)NC(=O)[C@H](Cc4c[nH]c5ccccc45)NC(=O)[C@H](Cc4c[nH]c5ccccc45)NC(=O)[C@H](Cc4c[nH]c5ccccc45)NC(=O)[C@H](CCCNC(=N)N)NC3=O)c(=O)c3cc(F)c(N4CCN(C)CC4)c(c32)O1`: the MIC in the data set with Staphylococcus aureus [8] is 32 µg/mL (≈ 16.9 µM); against Klebsiella pneumoniae, > 128 µg/mL.

(Values after ChEMBL document CHEMBL4602605, “Fluoroquinolones structural and medicinal developments (2013-2018): Where are we now?” (Bioorg Med Chem, 2019).)
